Values after ≈ are worked out from the molar mass of the structure shown.
Columns and labels:
P388 [1] = assay: Cytotoxicity against mouse doxorubicin-resistant P388 cells after 3 days; assay type: functional; conditions: P388, 72 h, read-out: ID50 (the source's name)
[2] = Cytotoxicity against human 9KB cells after 3 days; assay type: functional; conditions: 72 h, read-out: ID50 (the source's name)
P388 [3] = assay: Cytotoxicity against mouse doxorubicin-sensitive P388 cells after 3 days; assay type: functional; conditions: P388, 72 h, read-out: ID50 (the source's name)
M5076 [4] = assay: Antitumor activity in mouse M5076 cells xenografted in BDF1 mouse at 0.63 mg/kg, ip administered from day 1 to 9 after transplantation; assay type: functional; conditions: route intraperitoneal
Mus musculus [5] = assay: Toxicity in mouse M5076 cells xenografted in BDF1 mouse at 10 mg/kg, ip administered from day 1 to 9 after transplantation; assay type: organism-based; design: dose 10 mg/kg, route intraperitoneal; conditions: in vivo
B16 [6] = assay: Antitumor activity in mouse B16 cells xenografted in BDF1 mouse at 2.50 mg/kg, ip administered from day 1 to 5 after transplantation; assay type: functional; conditions: dose 2.5 mg/kg; route intraperitoneal
B16 [7] = assay: Antitumor activity in mouse B16 cells xenografted in BDF1 mouse at 1.25 mg/kg, ip administered from day 1 to 5 after transplantation; assay type: functional; conditions: route intraperitoneal
Mus musculus [8] = assay: Toxicity in mouse B16 cells xenografted in BDF1 mouse at 10 mg/kg, ip administered from day 1 to 5 after transplantation; assay type: organism-based; design: dose 10 mg/kg, route intraperitoneal; conditions: in vivo
B16 [9] = assay: Antitumor activity in mouse B16 cells xenografted in BDF1 mouse at 0.62 mg/kg, ip administered from day 1 to 5 after transplantation; assay type: functional; conditions: route intraperitoneal
M5076 [10] = assay: Antitumor activity in mouse M5076 cells xenografted in BDF1 mouse at 5 mg/kg, ip administered from day 1 to 9 after transplantation; assay type: functional; conditions: route intraperitoneal
M5076 [11] = assay: Antitumor activity in mouse M5076 cells xenografted in BDF1 mouse at 2.50 mg/kg, ip administered from day 1 to 9 after transplantation; assay type: functional; conditions: dose 2.5 mg/kg; route intraperitoneal
B16 [12] = assay: Antitumor activity in mouse B16 cells xenografted in BDF1 mouse at 5 mg/kg, ip administered from day 1 to 5 after transplantation; assay type: functional; conditions: route intraperitoneal
M5076 [13] = assay: Antitumor activity in mouse M5076 cells xenografted in BDF1 mouse at 1.25 mg/kg, ip administered from day 1 to 9 after transplantation; assay type: functional; conditions: route intraperitoneal
M5076 [14] = assay: Antitumor activity in mouse M5076 cells xenografted in BDF1 mouse at 0.31 mg/kg, ip administered from day 1 to 9 after transplantation; assay type: functional; conditions: route intraperitoneal

Row | Compound | IC50 (P388 [1]) [µg/mL] | IC50 [2] [µg/mL] | IC50 (P388 [3]) [µg/mL] | other results
1 | COc1cc2cc3c(c(O)c2c2c1C=CC(C)(C)O2)C(=O)CC(C)(OC(C)=O)C3 (stereo unspecified) [ACETYLVISMIONE B] | 2 (≈ 5.04 µM) | 42 (≈ 106 µM) | 5 (≈ 12.6 µM) | –
2 | CC(=O)OC1(C)CC(=O)c2c(cc3cc(OC/C=C(\C)CCC=C(C)C)cc(O)c3c2O)C1 (stereo unspecified) [ACETYLVISMIONE D] | – | 5 (≈ 11 µM) | 1.8 (≈ 3.98 µM) | –
3 | CC(=O)OC1(C)CC(=O)c2c(cc3cc(O)c(C/C=C(\C)CCC=C(C)C)c(O)c3c2O)C1 (stereo unspecified) [ACETYLVISMIONE F] | 3 (≈ 6.63 µM) | 1 (≈ 2.21 µM) | 2.7 (≈ 5.97 µM) | –
4 | COc1cc2cc3c(c(O)c2c(O)c1/C=C/C(C)C)C(=O)CC(C)(O)C3 (stereo unspecified) [DEACETYLVISMIONE A] | 0.3 (≈ 0.842 µM) | 0.7 (≈ 1.96 µM) | 0.4 (≈ 1.12 µM) | –
5 | COc1cccc2c1C(=O)c1c(O)c3c(c(O)c1C2=O)C[C@@](O)(C(=O)CO)C[C@@H]3O[C@H]1C[C@H](N)[C@H](O)[C@H](C)O1 [DOXORUBICIN] | 0.5 (≈ 0.92 µM) | 0.2 (≈ 0.368 µM) | 0.0055 (≈ 0.0101 µM) | –
6 | COc1cc2cc3c(c(O)c2c(O)c1/C=C/C(C)C)C(=O)CC(C)(OC(C)=O)C3 (stereo unspecified) [VISMIONE A] | 1.1 (≈ 2.76 µM) | 0.25 (≈ 0.627 µM) | 0.45 (≈ 1.13 µM) | T/C (M5076 [4]): 115%; T/C (Mus musculus [5]): Toxic; T/C (B16 [6]): 115%; T/C (B16 [7]): 112%; T/C (Mus musculus [8]): Toxic; T/C (B16 [9]): 98%; T/C (M5076 [10]): 145%; T/C (M5076 [11]): 140%; T/C (B16 [12]): 148%; T/C (M5076 [13]): 119%; T/C (M5076 [14]): 111%
7 | COc1cc2cc3c(c(O)c2c2c1C=CC(C)(C)O2)C(=O)CC(C)(O)C3 (stereo unspecified) [VISMIONE B] | 3 (≈ 8.46 µM) | 10 (≈ 28.2 µM) | 10 (≈ 28.2 µM) | –
8 | CC(=O)OC1(C)CC(=O)c2c(cc3cc(O)c(CC=C(C)C)c(O)c3c2O)C1 (stereo unspecified) [VISMIONE C] | – | 2.1 (≈ 5.46 µM) | – | –
9 | CC(C)=CCC/C(C)=C/COc1cc(O)c2c(O)c3c(cc2c1)CC(C)(O)CC3=O (stereo unspecified) [VISMIONE D] | 18 (≈ 43.8 µM) | 14 (≈ 34.1 µM) | 14 (≈ 34.1 µM) | –
10 | CC(C)=CCC/C(C)=C/Cc1c(O)cc2cc3c(c(O)c2c1O)C(=O)CC(C)(O)C3 (stereo unspecified) [VISMIONE F] | 13.5 (≈ 32.9 µM) | 2.8 (≈ 6.82 µM) | 2 (≈ 4.87 µM) | –
11 | CC(=O)OC1(C)CC(=O)c2c(c(C/C=C(\C)CCC=C(C)C)c3cc(O)cc(O)c3c2O)C1 (stereo unspecified) [VISMIONE G] | 30 (≈ 66.3 µM) | 3.2 (≈ 7.07 µM) | 30 (≈ 66.3 µM) | –

Source: ChEMBL document CHEMBL1149018, “Cytotoxic and antitumor activity of vismiones isolated from vismieae” (J Nat Prod, 1986)
